Results: patent US5011850A, “Substituted diazolylalkyl-carbinols, a process for their preparation and their use as antimycotic agents” (Bayer Aktiengesellschaft, priority 1983, dated 1991)
In brackets after ≈: the same amount, converted by molar mass.

What was measured:
Candida = experiment: Antimycotic in vivo activity (oral) in candidosis of mice; set-up: species or system mice (SPF-CF1); settings: 10-50 mg/kg one hour before and seven hours after infection, result in words
Procedure: Mice of the SPF-CF1 type were infested intravenously with 1-2×10^6 logarthmically growing Candida cells, which were suspended in physiological saline solution. The animals were treated with, in each case, 10-50 mg/kg of body weight of the products one hour before and seven hours after the infection.

Trichophyton mentagr. = experiment: Antimycotic in vitro activity, series dilution test; assay type: cell-based, Trichophyton mentagrophytes; settings: Sabourand's milieu d'epreuve, 5×10^4 germs/ml, 20° C., 96 hours
Procedure: (§1) The in vitro tests were carried out in a series dilution test with germ inocula of on average 5×10^4 germs/ml of substrate. The nutrient medium used was (a) for dermatophytes and moulds: Sabourand's milieu d'epreuve, and The incubation temperature was 20° C. and the duration of incubation was 24 to 96 hours in the case of yeasts and 96 hours in the case of dermatophytes and moulds.

Candida albicans = experiment: as above; assay type: cell-based; settings: meat extract/glucose broth, 5×10^4 germs/ml, 20° C., 24 to 96 hours
Procedure: as §1, with “(b)” for “(a)”, “yeasts: meat extract/glucose broth.” for “dermatophytes and moulds: Sabourand's milieu d'epreuve, and”

Torulopsis glabrata = experiment: as above; assay type: cell-based; settings: Nakaseomyces glabratus; meat extract/glucose broth; 5×10^4 germs/ml; 20° C.; 24 to 96 hours
Procedure: as §1, with “(b)” for “(a)”, “yeasts: meat extract/glucose broth.” for “dermatophytes and moulds: Sabourand's milieu d'epreuve, and”

Aspergillus fumigatus = experiment: as above; assay type: cell-based; settings: Sabourand's milieu d'epreuve, 5×10^4 germs/ml, 20° C., 96 hours
Procedure: as §1

[1] = test system: dermatophytes, moulds and yeasts; experiment: Antimycotic in vitro activity, series dilution test (overall action spectrum); assay type: cell-based; settings: result in words
Procedure: as §1, with “d'epreuve, and (b) for yeasts: meat extract/glucose broth. The incubation” for “d'epreuve, and The incubation”

| Structure (SMILES) | MIC (Trichophyton mentagr.) [µg/mL] | MIC (Candida albicans) [µg/mL] | MIC (Torulopsis glabrata) [µg/mL] | MIC (Aspergillus fumigatus) [µg/mL] | antimycotic action in candidosis of mice (in words) (Candida) | antimycotic action spectrum in vitro [1] |
| --- | --- | --- | --- | --- | --- | --- |
| CC(C)(n1cncn1)C(O)(Cn1cncn1)c1ccc(Cl)cc1 (stereo not drawn) [Example 1, 2-(4-chlorophenyl)-1,3-di-(1,2,4-triazol-1-yl)-3-methyl-2-butanol] | – | – | – | – | good antimycotic action | – |
| CC(n1cncn1)C(O)(Cn1cncn1)c1ccc(-c2ccccc2)cc1 (stereo not drawn) [Example 10] | 2 (≈ 5.55 µM) | 2 (≈ 5.55 µM) | 64 (≈ 178 µM) | 64 (≈ 178 µM) | – | good antimycotic action spectrum |
| CC(C)(n1cncn1)C(O)(Cn1cncn1)c1ccc(-c2ccc(Cl)cc2)cc1 (stereo not drawn) [Example 6] | ≤ 1 | 64 (≈ 157 µM) | – | 16 (≈ 39.1 µM) | – | good antimycotic action spectrum |
| CC(C)(n1cncn1)C(O)(Cn1ccnc1)c1ccc(-c2ccc(Cl)cc2)cc1 (stereo not drawn) [Example 9] | 4 (≈ 9.81 µM) | 8 (≈ 19.6 µM) | 8 (≈ 19.6 µM) | 32 (≈ 78.4 µM) | – | good antimycotic action spectrum |
| CC(C)(n1cncn1)C(O)(Cn1cncn1)c1ccccc1 (stereo not drawn) [Example 4] | – | – | – | – | good antimycotic action | – |

The next lines start with results.

| MIC (Trichophyton mentagr.) [µg/mL] | MIC (Candida albicans) [µg/mL] | MIC (Torulopsis glabrata) [µg/mL] | MIC (Aspergillus fumigatus) [µg/mL] | Structure (SMILES) | antimycotic action in candidosis of mice (in words) (Candida) | antimycotic action spectrum in vitro [1] |
| --- | --- | --- | --- | --- | --- | --- |
| ≤ 1 | 2 (≈ 4.71 µM) | 32 (≈ 75.3 µM) | > 64 | CC(C)(n1cncn1)C(O)(Cn1cncn1)c1ccc(Oc2ccc(Cl)cc2)cc1 (stereo not drawn) [Example 5] | good antimycotic action | good antimycotic action spectrum |
| 16 (≈ 50.6 µM) | 16 (≈ 50.6 µM) | 64 (≈ 202 µM) | > 64 | CC(C)(n1cncn1)C(O)(Cn1cncn1)c1ccc(F)cc1 (stereo not drawn) [Example 3] | good antimycotic action | good antimycotic action spectrum |
| 8 (≈ 18.9 µM) | 4 (≈ 9.44 µM) | 32 (≈ 75.5 µM) | 64 (≈ 151 µM) | CC(C)(n1cncn1)C(O)(Cn1ccnc1)c1ccc(Oc2ccc(Cl)cc2)cc1 (stereo not drawn) [Example 8] | – | good antimycotic action spectrum |
